Paper PMC9586930, “Molecular insights into the distinct signaling duration for the peptide-induced PTH1R activation” (Nature Communications, 2022)
Substitutions are numbered along the chain they refer to.

What was measured:
Type in all cases: cell-based
Details in all cases: for ΔpEC50±SEM: relative to WT, n = 3 in triplicate; for ΔpEC50±SEM / Span±SEM: mean ± SEM; for Span±SEM: window between maximal response (Emax) and vehicle, n = 3
[1] = biological target: T1, PTH1R E180A mutant (Homo sapiens, UniProt Q03431, E180A); assay: cAMP accumulation assay (GloSensor), PTH1R E180A
T1 construct: a flag-tag was fused to the N terminal of full-length PTH1R (WT or mutant); expressed in transfected cells; host or cells: HEK293T
T1 sequence (Q03431 27-593 E180A): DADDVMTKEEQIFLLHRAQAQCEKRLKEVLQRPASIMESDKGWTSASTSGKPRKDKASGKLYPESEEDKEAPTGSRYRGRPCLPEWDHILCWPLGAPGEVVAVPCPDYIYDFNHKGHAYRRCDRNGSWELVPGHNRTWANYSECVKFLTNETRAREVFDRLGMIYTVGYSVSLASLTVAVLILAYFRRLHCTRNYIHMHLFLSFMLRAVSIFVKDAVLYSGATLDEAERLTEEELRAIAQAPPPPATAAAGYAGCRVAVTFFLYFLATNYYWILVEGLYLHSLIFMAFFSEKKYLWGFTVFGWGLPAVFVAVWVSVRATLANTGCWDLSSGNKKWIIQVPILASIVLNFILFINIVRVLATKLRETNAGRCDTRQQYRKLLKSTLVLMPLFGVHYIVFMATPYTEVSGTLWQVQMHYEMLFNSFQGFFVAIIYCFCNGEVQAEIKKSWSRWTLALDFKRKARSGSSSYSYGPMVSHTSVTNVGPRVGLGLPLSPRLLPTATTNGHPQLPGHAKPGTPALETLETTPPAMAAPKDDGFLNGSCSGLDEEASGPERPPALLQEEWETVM
Protocol: (§1) Human embryonic kidney 293 T (HEK293T, ATCC: CRL-1573) cells were transfected with a plasmid mixture consisting of pcDNA3.1-flag-PTH1R (WT or mutants) and the cAMP biosensor GloSensor-22F (Promega) at a ratio of 2:1 (see Supplementary Table 7 for a list of primers used in this study). After 24 h, transfected cells were plated onto a 384-well plate, which was treated with cell adherent reagent (Applygen) in advance. After another 12 h, cells were treated with Hank’s balanced salt solution for starvation and then incubated in CO2-independent media containing 4% GloSensor cAMP Reagent (Promega) at a volume of 5 μl per well and incubated for 20 min at RT before measurements for baseline luminescence (Spark Multimode microplate reader, TECAN). Next, test ligands were added at different concentrations from 10^−6 to 10^−13 M before second measurement. Finally, data were normalized to 100% of the maximal PTH (1-34) response for WT PTH1R using a sigmoidal dose-response in GraphPad Prism.
(§2) Statistical analyses were performed on at least three individual datasets and analysed using GraphPad Prism software. Bars represent differences in the calculated agonist potency (pEC50) and maximum agonist response (Emax) for each mutant relative to the WT receptor. Data are mean± s.e.m. from at least three independent experiments, performed in triplicates. ns, not significant, ^nsP > 0.01; ^*P < 0.01; ^**P < 0.001; ^***P < 0.0001 (one-way analysis of variance (ANOVA) followed by Dunnett’s test, compared with the response of the WT). For dose-response experiments, data were normalized and analyzed using nonlinear curve fitting for the log (agonist) versus response (three parameters) curves.

[2] = biological target: T2, PTH1R L244A mutant (Homo sapiens, UniProt Q03431, L244A); assay: cAMP accumulation assay (GloSensor), PTH1R L244A
T2 construct: a flag-tag was fused to the N terminal of full-length PTH1R (WT or mutant); expressed in transfected cells; host or cells: HEK293T
T2 sequence (Q03431 27-593 L244A): T1 sequence (Q03431 27-593 E180A) with A154E, L218A
Protocol: as §1, §2

[3] = biological target: T3, PTH1R K360A mutant (Homo sapiens, UniProt Q03431, K360A); assay: cAMP accumulation assay (GloSensor), PTH1R K360A
T3 construct: a flag-tag was fused to the N terminal of full-length PTH1R (WT or mutant); expressed in transfected cells; host or cells: HEK293T
T3 sequence (Q03431 27-593 K360A): T1 sequence (Q03431 27-593 E180A) with A154E, K334A
Protocol: as §1, §2

| Substance | span (from the WT) ([1]; PTH1R E1801.32A, replicate 1) | ΔpEC50 (from the WT) ([1]; PTH1R E1801.32A, replicate 1) | span (from the WT) ([1]; PTH1R E1801.32A, replicate 2) | ΔpEC50 (from the WT) ([1]; PTH1R E1801.32A, replicate 2) | span (from the WT) ([1]; PTH1R E1801.32A, replicate 3) | ΔpEC50 (from the WT) ([1]; PTH1R E1801.32A, replicate 3) | ΔpEC50±SEM [1] | ΔpEC50 (from the WT) ([1]; replicate 1) | ΔpEC50 (from the WT) ([1]; replicate 2) | ΔpEC50 (from the WT) ([1]; replicate 3) | Span±SEM [1] | span (from the WT) ([2]; PTH1R L2442.71A, replicate 1) | ΔpEC50 (from the WT) ([2]; PTH1R L2442.71A, replicate 1) | span (from the WT) ([2]; PTH1R L2442.71A, replicate 2) | ΔpEC50 (from the WT) ([2]; PTH1R L2442.71A, replicate 2) | span (from the WT) ([2]; PTH1R L2442.71A, replicate 3) | ΔpEC50 (from the WT) ([2]; PTH1R L2442.71A, replicate 3) | ΔpEC50±SEM [2] | ΔpEC50 (from the WT) ([2]; replicate 1) | ΔpEC50 (from the WT) ([2]; replicate 2) | other results |
| --- | --- | --- | --- | --- | --- | --- | --- | --- | --- | --- | --- | --- | --- | --- | --- | --- | --- | --- | --- | --- | --- |
| H-AVAEIQLMHQRAKWIQDARRRAFLHKLIAEIHTAEI-OH [LA-PTH, long-acting PTH analog, modified PTH/PTHrP hybrid] | 111 | -0.03 | 162.5 | 0.025 | 202.3 | 0.095 | 0.03±0.04 | -0.03 | 0.025 | 0.095 | 158.60±26.43 | 131 | -0.382 | 190.8 | -0.346 | 179.4 | -0.43 | -0.39±0.02 | -0.382 | -0.346 | ΔpEC50 (from the WT) ([2]; replicate 3): -0.43; Span±SEM [2]: 167.07±18.33; span (from the WT) ([3]; PTH1R K3605.36A, replicate 1): 126.5; ΔpEC50 (from the WT) ([3]; PTH1R K3605.36A, replicate 1): 0.012; span (from the WT) ([3]; PTH1R K3605.36A, replicate 2): 121.9; ΔpEC50 (from the WT) ([3]; PTH1R K3605.36A, replicate 2): 0.001; span (from the WT) ([3]; PTH1R K3605.36A, replicate 3): 153.1; ΔpEC50 (from the WT) ([3]; PTH1R K3605.36A, replicate 3): -0.25; ΔpEC50±SEM [3]: -0.08±0.09; ΔpEC50 (from the WT) ([3]; replicate 1): 0.012; ΔpEC50 (from the WT) ([3]; replicate 2): 0.001; ΔpEC50 (from the WT) ([3]; replicate 3): -0.25; Span±SEM [3]: 133.83±9.72 |
| H-AVSEHQLLHDKGKSIQDLRRRELLEKLL-{Aib}-KLHTA-NH2 [ABL, Abaloparatide, an analog of PTHrP, short-acting PTH1R agonist] | 108.1 | -0.513 | 146.6 | -0.61 | 148 | -0.513 | -0.55±0.03 | -0.513 | -0.61 | -0.513 | 134.23±13.07 | 180 | -2.593 | 247.7 | -2.562 | 245.8 | -2.458 | -2.54±0.04 | -2.593 | -2.562 | ΔpEC50 (from the WT) ([2]; replicate 3): -2.458; Span±SEM [2]: 224.50±22.26; span (from the WT) ([3]; PTH1R K3605.36A, replicate 1): 125.1; ΔpEC50 (from the WT) ([3]; PTH1R K3605.36A, replicate 1): -1.039; span (from the WT) ([3]; PTH1R K3605.36A, replicate 2): 150.8; ΔpEC50 (from the WT) ([3]; PTH1R K3605.36A, replicate 2): -1.216; span (from the WT) ([3]; PTH1R K3605.36A, replicate 3): 115; ΔpEC50 (from the WT) ([3]; PTH1R K3605.36A, replicate 3): -1.137; ΔpEC50±SEM [3]: -1.13±0.05; ΔpEC50 (from the WT) ([3]; replicate 1): -1.039; ΔpEC50 (from the WT) ([3]; replicate 2): -1.216; ΔpEC50 (from the WT) ([3]; replicate 3): -1.137; Span±SEM [3]: 130.30±10.66 |
| H-SVSEIQLMHNLGKHLNSMERVEWLRKKLQDVHNF-OH [PTH, Teriparatide, human PTH 1-34, long-acting peptide agonist of PTH1R] | 108.2 | -0.151 | 115.5 | -0.207 | 203.5 | 0.036 | -0.11±0.07 | -0.151 | -0.207 | 0.036 | 193.57±39.96 | 138.7 | -0.566 | 168.7 | -0.398 | 186.9 | -0.464 | -0.48±0.05 | -0.566 | -0.398 | ΔpEC50 (from the WT) ([2]; replicate 3): -0.464; Span±SEM [2]: 150.17±18.04; span (from the WT) ([3]; PTH1R K3605.36A, replicate 1): 136.9; ΔpEC50 (from the WT) ([3]; PTH1R K3605.36A, replicate 1): 0.02; span (from the WT) ([3]; PTH1R K3605.36A, replicate 2): 137.1; ΔpEC50 (from the WT) ([3]; PTH1R K3605.36A, replicate 2): -0.139; span (from the WT) ([3]; PTH1R K3605.36A, replicate 3): 183.3; ΔpEC50 (from the WT) ([3]; PTH1R K3605.36A, replicate 3): -0.31; ΔpEC50±SEM [3]: -0.14±0.10; ΔpEC50 (from the WT) ([3]; replicate 1): 0.02; ΔpEC50 (from the WT) ([3]; replicate 2): -0.139; ΔpEC50 (from the WT) ([3]; replicate 3): -0.31; Span±SEM [3]: 135.06±20.89 |
